Experimental data published in ChEMBL document CHEMBL1201861, “Genomics of Drug Sensitity in Cancer screening data, Wellcome Trust Sanger Institute”.
“And” between values parts separate entries of the source, which are not always exact repeats. Equal entries are not always repeated. Where a SMILES comes first, the peptide text is derived from it. The star is where a group is joined. Cbz = O=C(OCc1ccccc1)*

Legend:
COR-L279 = experiment: SANGER: Inhibition of human COR-L279 cell growth in a cell viability assay.; type: functional, cell-based
Daudi = experiment: cells; type: functional, cell-based, Homo sapiens;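 further: growth inhibition of Daudi cells, read out by a viability assay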
Description: SANGER: Inhibition of human Daudi cell growth in a cell viability assay.

EB2 = experiment: cells; type: functional, cell-based, Homo sapiens;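 further: growth inhibition of EB2 cells, read out with a cell viability assay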
Description: SANGER: Inhibition of human EB2 cell growth in a cell viability assay.

HC-1 = experiment: cells; type: functional, cell-based, Homo sapiens;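 further: growth inhibition of HC-1 cells measured by a cell viability assay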
Description: SANGER: Inhibition of human HC-1 cell growth in a cell viability assay.

KMS-12-PE = experiment: cells; type: functional, cell-based, Homo sapiens;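 further: growth inhibition of human KMS-12-PE cells, measured with a cell viability assay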
Description: SANGER: Inhibition of human KMS-12-PE cell growth in a cell viability assay.

L-540 = experiment: cells; type: functional, cell-based, Homo sapiens;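 further: growth inhibition of the human L-540 cell line, read out with a viability assay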
Description: SANGER: Inhibition of human L-540 cell growth in a cell viability assay.

LOUCY = experiment: cells; type: functional, cell-based, Homo sapiens;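 further: growth inhibition of human LOUCY cells, read out with a cell viability assay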
Description: SANGER: Inhibition of human LOUCY cell growth in a cell viability assay.

LP-1 = experiment: cells; type: functional, cell-based, Homo sapiens;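 further: growth inhibition of human LP-1 cells, with the read-out taken from a cell viability assay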
Description: SANGER: Inhibition of human LP-1 cell growth in a cell viability assay.

NCI-H748 = experiment: cells; type: functional, cell-based, Homo sapiens;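 further: growth inhibition of NCI-H748 cells, measured by a cell viability assay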
Description: SANGER: Inhibition of human NCI-H748 cell growth in a cell viability assay.

PF-382 = experiment: cells; type: functional, cell-based, Homo sapiens
Description: SANGER: Inhibition of human PF-382 cell growth in a cell viability assay.

SIMA = experiment: cells; type: functional, cell-based, Homo sapiens;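 further: growth inhibition of SIMA cells, measured with a cell viability readout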
Description: SANGER: Inhibition of human SIMA cell growth in a cell viability assay.

BC-3 = experiment: cells; type: functional, cell-based, Homo sapiens;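 further: cell viability assay measuring growth inhibition of human BC-3 cells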
Description: SANGER: Inhibition of human BC-3 cell growth in a cell viability assay.

CA46 = experiment: cells; type: functional, cell-based, Homo sapiens;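 further: growth inhibition of human CA46 cells, read out by a cell viability assay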
Description: SANGER: Inhibition of human CA46 cell growth in a cell viability assay.

THP-1 = experiment: cells; type: functional, cell-based, Homo sapiens;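 further: growth inhibition of THP-1 cells, read out via a cell viability assay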
Description: SANGER: Inhibition of human THP-1 cell growth in a cell viability assay.

D-542MG = experiment: cells; type: functional, cell-based; settings: Homo sapiens
Description: SANGER: Inhibition of human D-542MG cell growth in a cell viability assay.

Row | Compound | IC50 (COR-L279; Homo sapiens, COR-L279) [nM] | IC50 (Daudi; Homo sapiens, Daudi) [nM] | IC50 (EB2; Homo sapiens, EB2) [nM] | IC50 (HC-1; Homo sapiens, HC-1) [nM] | IC50 (KMS-12-PE; Homo sapiens, KMS-12-PE) [nM] | IC50 (L-540; Homo sapiens, L-540) [nM] | IC50 (LOUCY; Homo sapiens, LOUCY) [nM] | IC50 (LP-1; Homo sapiens, LP-1) [nM] | IC50 (NCI-H748; Homo sapiens, NCI-H748) [nM] | IC50 (PF-382; Homo sapiens, PF-382) [nM] | IC50 (SIMA; Homo sapiens, SIMA) [nM] | IC50 (BC-3; Homo sapiens, BC-3) [nM] | IC50 (CA46; Homo sapiens, CA46) [nM] | IC50 (THP-1; Homo sapiens, THP-1) [nM] | IC50 (D-542MG) [nM] | other results
1 | C[C@@H](Oc1cc(-c2cnn(C3CCNCC3)c2)cnc1N)c1c(Cl)ccc(F)c1Cl [CRIZOTINIB] | > 2000 | > 2000 | > 2000 | > 2000 | > 2000 | > 2000 | > 2000 | > 2000 | > 2000 | > 2000 | > 2000 | > 2000 | > 2000 | > 2000 |  | 
2 | Nc1ccccc1NC(=O)c1ccc(CNC(=O)OCc2cccnc2)cc1 [ENTINOSTAT] | 710 | 777 | > 5000 | 505 | > 5000 | 1110 | 634 | 1300 | 103 | 1120 | > 5000 | 783 | > 5000 | > 5000 | 1890 | 
3 | CC(C)C[C@H](NC(=O)[C@H](Cc1ccccc1)NC(=O)c1cnccn1)B(O)O [BORTEZOMIB] | > 20 | 1.22 | 18.1 | 0.975 | > 20 | 1.37 | 0.293 | > 20 | 2.39 | 1.47 | > 20 | 6.61 | > 20 | > 20 | 0.329 | 
4 | C=CC(=O)N1CCCC(Nc2nc(Nc3ccc(N(C)C(=O)CC)cc3)nc3[nH]cnc23)C1 (stereo unspecified) | > 10200 | > 10200 | > 10200 | > 10200 | > 10200 | > 10200 | > 10200 | > 10200 | > 10200 | > 10200 | > 10200 | 9060 | > 10200 | > 10200 |  | 
5 | NC(=O)c1cccc(-c2cc(Nc3ccc(OC(F)(F)F)cc3)ncn2)c1 | > 1280 | > 1280 | > 1280 | > 1280 | > 1280 | > 1280 | > 1280 | > 1280 | > 1280 | > 1280 | > 1280 | > 1280 | > 1280 | > 1280 |  | 
6 | COc1cc(N2CCC(N3CCN(C)CC3)CC2)ccc1Nc1ncc(Cl)c(Nc2ccccc2S(=O)(=O)C(C)C)n1 [TAE-684] | > 2000 | 1790 | > 2000 | > 2000 | > 2000 | 370 | > 2000 | 1870 | > 2000 | 1570 | > 2000 | > 2000 | > 2000 | > 2000 |  | 
7 | Cc1cc(N2CCOCC2)cc2[nH]c(-c3c(NC[C@@H](O)c4cccc(Cl)c4)cc[nH]c3=O)nc12 | > 5120 | > 5120 | > 5120 | > 5120 | > 5120 | > 5120 | > 5120 | > 5120 | > 5120 | > 5120 | > 5120 | 4340 | > 5120 | > 5120 |  | 
8 | COc1ccc(N(C(=O)Oc2c(C)cccc2C)c2ccnc(Nc3ccc(N4CCN(C)CC4)cc3)n2)c(OC)c1 | > 5120 | 714 | > 5120 | > 5120 | > 5120 | > 5120 | > 5120 | > 5120 | > 5120 | 708 | > 5120 | > 5120 | > 5120 | > 5120 |  | 
9 | Cc1ccc(NC(=O)c2ccc(CN3CCN(C)CC3)cc2)cc1Nc1nccc(-c2cccnc2)n1 [IMATINIB] | > 2000 | > 2000 | > 2000 | > 2000 | > 2000 | > 2000 | > 2000 | > 2000 | > 2000 | > 2000 | > 2000 | > 2000 | > 2000 | > 2000 |  | 
10 | CC(C)C[C@@H](C=O)NC(=O)[C@H](CC(C)C)NC(=O)[C@H](CC(C)C)NC(=O)OCc1ccccc1 [MG-132] (Cbz-Leu-Leu-Leu-aldehyde) |  |  |  |  |  |  |  |  | > 1000 |  |  | > 1000 | > 1000 |  | 59.6 | IC50 (COR-L279; cor-l279): > 1000 nM; IC50 (Daudi; daudi): > 1000 nM; IC50 (EB2; eb2): > 1000 nM; IC50 (HC-1; hc-1): > 1000 nM; IC50 (KMS-12-PE; kms-12-pe): > 1000 nM; IC50 (L-540; l-540): > 1000 nM; IC50 (LOUCY; loucy): 255 nM and > 1000 nM; IC50 (LP-1; lp-1): > 1000 nM; IC50 (NCI-H748; nci-h748): > 1000 nM; IC50 (PF-382; pf-382): 167 nM and 584 nM; IC50 (SIMA; sima): > 1000 nM; IC50 (BC-3; bc-3): > 1000 nM; IC50 (CA46; ca46): > 1000 nM; IC50 (THP-1; thp-1): > 1000 nM
